Read-outs that look alike come from different tables or passages of the source.
Columns and labels:
[1] = target: stromelysin (Homo sapiens, UniProt P08254); assay: Assay of Stromelysin Inhibition Activity (fluorogenic substrate hydrolysis); assay type: biochemical; settings: for IC50: 60 minutes incubation; for inhibition at 10 µM: read-out: percent inhibition of stromelysin
Protocol: (§1) Stromelysin was first activated by trypsin. This was done by preparing a reaction mixture in B-150 (B-150 consists of 150 mM NaCl, 20 mM Tris at pH 7.8 and 0.02% sodium azide) containing a final concentration of 4 μg/mL trypsin, 1.48 μg/mL of stromelysin, and 3.15 mM CaCl2. The reaction was incubated for 30 minutes at 37° C. and then quenched by adding soybean trypsin inhibitor to a final concentration of 43.6 μg/mL. ZnCl2 was added to the reaction mixture for a total concentration of 0.24 μM.
(§2) Following preparation of the solution of activated stromelysin, assay solutions were prepared for each inhibitor being tested. A control was also prepared. First, […] of activated stromelysin (about 45 μL from the solution of activated stromelysin) were aliquotted per assay tube. A 2.5 mM solution in 100% dimethyl sulfoxide (DMSO) was prepared for each inhibitor being tested and 1 μL from each inhibitor solution was added to one of the assay tubes. In addition, 1 μL of 100% DMSO was added to the control assay tube. All assay tubes were then pre-incubated for 5 minutes.
(§3) 5 μL of a previously prepared 50 μM solution of substrate in 15% DMSO were added to each assay tube. The substrate was a methoxycumarin developed by Knight et al. FEBS Lett. 296:263-66 (1992). The tubes were then incubated for 60 minutes, at which time the reaction was stopped with the addition of 750 μL of 0.1M NaAc pH 4.0 buffer.
(§4) Substrate hydrolysis was assessed by fluorescence using a slit width of 10:10, excitation at 328 nm and emission at 393 nm. The results of these assays are listed in Table I as percent inhibition at 10 μM of the bile acid provided compound tested or as the IC50.

[2] = test system: collagenase; assay: Assay of Collagenase Inhibition Activity; assay type: biochemical; settings: at 10 μM of compound; 45 minutes at 37° C.
Protocol: as §1, §2, §3, §4
The assay procedure for collagenase was the same as described in Example 13 for stromelysin except that the trypsin activation was performed for 45 minutes. In addition, the incubation of the assay tubes at 37° C. was only for 45 minutes, and the final enzyme concentration is 6 nm. The results of these assays are provided in Table I as percent inhibition at 10 μM of the compound tested.

[3] = test system: chondrocytes; assay: Chondrocyte Cell Culture Matrix Breakdown Assay (35S release, rhIL-1α stimulated); assay type: cell-based, calf; settings: Bos taurus, Chondrocyte; for inhibition at 50 µM: read-out: percent inhibition, Cell Culture
Protocol: A cell culture assay was used to measure the ability of compounds to slow the degradation of the extracellular matrix by a metalloproteinase. This assay measured the amount ^35 S released from chondrocytes grown in a media with ^35 S labeled sodium sulfate. The cell culture assay was carried out as follows:
Two or three 1 to 3 week old calf joints were obtained from an abattoir. The proximal end of the shank was at about 4-5" long to facilitate immobilization in the holder. The joint was kept cool and transported on ice. The exterior of the intact joints was washed well with a suitable anti-microbial soap, rinsed clean with warm water, rinsed in betadine and then finally rinsed with 70% ethanol. Up to this point all steps were done in a manner to ensure that the joint was kept as clean as possible. All subsequent steps were performed in a sterile field (i.e., in a Edgeguard laminar flow tissue culture hood). The joint was immobilized and the synovial fluid was aspirated with a needle and syringe. The joint was then cut open to expose the articular cartilage using a #21 scalpel. Using locking hemostats, forceps and a #15 scalpel, the cartilage was excised in full thickness pieces. Care was taken not to cut too deep because bleeding would have occurred if the subchondral bone, was penetrated. The cartilage pieces were placed into a 50 mL centrifuge tube containing 25 mL of Delbecco's phosphate buffered saline (D-PBS) supplemented with 1% antibiotic solution (penicillin, streptomycin and fungizone; GIBCO/BRL). The slices from each joint were then placed into separate 50 mL centrifuge tubes. The D-PBS was decanted and replaced with 25 mL of fresh D-PBS supplemented with antibiotics and subsequently agitated gently.
The cartilage pieces were transferred to a fresh 50 mL centrifuge tube and rinsed once more with 25 mL of D-PBS minus antibiotics. An enzymatic digestion solution containing 1 mg/mL of hyaluronidase in serum-free 1:1 DMEM/Ham's F-12 (DMEM/F12) was prepared. This solution was filter sterilized with […] Milex--GV filter and kept on ice until ready to use. The cartilage pieces were digested with approximately 5 mL of hyaluronidase solution per joint for 2×15 minutes at 37° C. in the 50 mL centrifuge tube with gentle agitation at the 15 minute mark. This procedure removed residual hyaluronic acid from the surface of the chips. The enzymatic digestion solution was then aspirated and the cartilage pieces were rinsed with 25 mL of D-PBS.
A second enzymatic digestion solution containing 2.5 mg trypsin and 2 mg collagenase P per mL serum-free DMEM/F12 was prepared. This solution was also filter sterilized with a […] Millex--GV filter and kept on ice until ready to use. The cartilage pieces were digested with approximately 5 mL of trypsin: collagenase solution per joint for 2×15 minutes at 37° C. in the 50 mL centrifuge tube with gentle agitation at the 15 minute mark. This procedure removed the synovial fibroblasts and any adherent connective tissue from the surface of the chips. The enzymatic digestion solution was then carefully removed and saved and the cartilage pieces were rinsed with 25 mL of D-PBS.
A third enzymatic solution containing 2 mgs of collagenase P (BMB) per mL serum-free DMEM/F12 was prepared. This solution was filter sterilized with a […] Millex--GV filter and kept on ice until ready to use. The pre-digested cartilage pieces were finally digested with approximately 20 mL of enzymatic digestion solution per joint for 5-6 hours at 37° C. in a Bellco stirring digestion flask, at which point the cartilage was fully digested away.
The enzymes in the synovial fibroblast and chondrocyte digest were neutralized by addition of an equal volume of DMEM/F12 supplemented with 5% fetal bovine serum. Fibroblasts were plated in DMEM at a cellular density of 6.6×10^3 cells per cm^2. […]

[4] = at 50 μM, rhIL-1α 1 ng/ml, 22-24 hours

Sequence of stromelysin (P08254 100-477): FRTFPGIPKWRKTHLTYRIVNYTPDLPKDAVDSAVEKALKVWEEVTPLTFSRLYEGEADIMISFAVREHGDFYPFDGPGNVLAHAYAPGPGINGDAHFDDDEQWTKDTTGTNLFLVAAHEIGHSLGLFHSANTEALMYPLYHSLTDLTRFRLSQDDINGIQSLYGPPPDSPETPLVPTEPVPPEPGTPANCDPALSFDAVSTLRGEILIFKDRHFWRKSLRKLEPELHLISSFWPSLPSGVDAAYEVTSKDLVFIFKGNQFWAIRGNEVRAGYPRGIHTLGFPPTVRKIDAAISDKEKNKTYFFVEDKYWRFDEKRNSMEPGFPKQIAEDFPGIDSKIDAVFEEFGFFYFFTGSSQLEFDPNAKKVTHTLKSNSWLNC

| Structure (SMILES) | IC50 [1] [µM] | percent inhibition of collagenase [2] [%] | inhibition at 50 µM [3, 4] [%] | inhibition at 10 µM [1] [%] | inhibition at 50 µM [3] [%] | IC50 ([3]; rhIL-1α 1 ng/ml, 22-24 hours) [µM] | inhibition at 10 µM ([1]; at 10 μM of compound) [%] |
| --- | --- | --- | --- | --- | --- | --- | --- |
| C[C@H](CCC(=O)O)[C@H]1CC[C@H]2[C@@H]3CC[C@@H]4C[C@H](O)CC[C@]4(C)[C@H]3CC[C@]12C [Compound 1, Lithocholic acid, reference compound] | 38 | 27 | 95 |  |  |  |  |
| C[C@H](CCC(=O)NCCC[N+](C)(C)CCCS(=O)(=O)[O-])[C@H]1CC[C@H]2[C@@H]3[C@H](O)C[C@@H]4C[C@H](O)CC[C@]4(C)[C@H]3C[C@H](O)[C@]12C [Compound 8, 3-[(3-cholamidopropyl)dimethylammonio)-1-propanesulfonate, reference compound] |  | 22 |  | 26 | 2 |  |  |
| CC(C)C[C@H](NC(=O)CC[C@@H](C)[C@H]1CC[C@H]2[C@@H]3CC[C@@H]4C[C@H](O)CC[C@]4(C)[C@H]3CC[C@]12C)C(=O)NO [Compound 9, Lithocholyl-(L)-Leucine Hydroxamic Acid] | 1 | 27 | 43 |  |  |  |  |
| CC(C)C[C@H](NC(=O)CC[C@@H](C)[C@H]1CC[C@H]2[C@@H]3[C@H](O)C[C@@H]4C[C@H](O)CC[C@]4(C)[C@H]3CC[C@]12C)C(=O)NO [Compound 10, Chenodeoxycholyl-(L)-Leucine Hydroxamic Acid] | 5 | 8 |  |  |  | 80 |  |
| C[C@H](CCC(=O)NOCc1ccccc1)[C@H]1CC[C@H]2[C@@H]3[C@H](O)C[C@@H]4C[C@H](O)CC[C@]4(C)[C@H]3CC[C@]12C [Compound 12, Chenodeoxycholyl-O-Benzylhyroxamate] |  | 21 | 64 |  |  |  | 5 |
| C[C@H](CCC(=O)NO)[C@H]1CC[C@H]2[C@@H]3CC[C@@H]4C[C@H](O)CC[C@]4(C)[C@H]3CC[C@]12C [Compound 13, Lithocholylhydroxamic Acid] |  | 35 |  |  |  | 20 | 56 |
| C[C@H](CCC(=O)N[C@@H](Cc1ccccc1)C(=O)NO)[C@H]1CC[C@H]2[C@@H]3CC[C@@H]4C[C@H](O)CC[C@]4(C)[C@H]3CC[C@]12C [Compound 15, Lithocholyl-(L)-Phenylalanine Hydroxamic Acid] |  | 58 | 38 |  |  |  | 85 |
| C[C@H](CCC(=O)N[C@@H](Cc1ccccc1)C(=O)NO)[C@H]1CC[C@H]2[C@@H]3[C@H](O)C[C@@H]4C[C@H](O)CC[C@]4(C)[C@H]3CC[C@]12C [Compound 16, Chenodeoxycholyl-(L)-Phenylalanine Hydroxamic Acid] |  | 38 | 85 |  |  |  | 80 |
| CCOC(=O)[C@H](CS)NC(=O)[C@H](Cc1ccccc1)NC(=O)CC[C@@H](C)[C@H]1CC[C@H]2[C@@H]3CC[C@@H]4C[C@H](O)CC[C@]4(C)[C@H]3CC[C@]12C [Compound 19, Lithocholyl-(L)-Phenylalanyl-(L)-Cysteine Ethyl Ester] | 2 | 33 | 4 |  |  |  |  |
| C[C@H](CCC(=O)N[C@@H](Cc1ccccc1)C(=O)NC1CCSC1=O)[C@H]1CC[C@H]2[C@@H]3CC[C@@H]4C[C@H](O)CC[C@]4(C)[C@H]3CC[C@]12C (stereo partly drawn) [Compound 20, Lithocholyl-Phenylalanylhomocysteine Thiolactone] |  | 57 | 16 |  |  |  | 57 |

Source: patent publication US5646316A, “Bile acid inhibitors of metalloproteinase enzymes” (OsteoArthritis Sciences, Inc., priority 1995, dated 1997)
